According to article PMC5533763, “Two dopamine D2-like receptor genes from the silkworm (Bombyx mori) and their evolutionary history in metazoan” (Scientific Reports, 2017):

Target: T1, BmDop2R2 (Bombyx mori, UniProt A0A2D1QSC3)
T1 construct: full-length ORF (536 residues printed; 1596 bp ORF, which would give about 531; 7 TM) in pcDNA3.1(+), HindIII/NotI, transfected HEK-293 cells; no tag mentioned; chromosome 18, nscaf 2901; tandem paralogue of BmDop2R1 (440 residues, lacks TM I-II)
T1 sequence (A0A2D1QSC3 1-536): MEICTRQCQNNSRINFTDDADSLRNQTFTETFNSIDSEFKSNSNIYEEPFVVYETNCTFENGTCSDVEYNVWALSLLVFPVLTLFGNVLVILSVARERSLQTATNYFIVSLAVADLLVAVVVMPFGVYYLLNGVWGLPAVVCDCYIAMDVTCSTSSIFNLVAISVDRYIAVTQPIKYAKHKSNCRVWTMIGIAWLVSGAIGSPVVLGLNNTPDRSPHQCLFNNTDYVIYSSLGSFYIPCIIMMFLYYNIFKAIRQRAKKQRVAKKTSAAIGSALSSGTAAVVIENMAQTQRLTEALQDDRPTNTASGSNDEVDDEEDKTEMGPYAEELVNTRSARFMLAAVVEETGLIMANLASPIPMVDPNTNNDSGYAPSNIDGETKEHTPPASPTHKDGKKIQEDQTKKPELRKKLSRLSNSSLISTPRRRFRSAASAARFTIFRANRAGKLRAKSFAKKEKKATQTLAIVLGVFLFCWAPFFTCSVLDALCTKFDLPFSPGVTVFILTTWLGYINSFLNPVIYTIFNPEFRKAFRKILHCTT
Assay: cAMP ELISA in transfected HEK-293 cells (inhibition of forskolin-stimulated cAMP)
Assay type: cell-based

`NCCc1ccc(O)c(O)c1` [dopamine] showed an EC50 of 657 nM.
